# Assay results reported in patent US8987314B2, “Amide, urea or sulfone amide linked benzothiazole inhibitors of endothelial lipase” (Bristol-Myers Squibb Company, priority 2012, dated 2015).
# What was measured:
# Endothelial lipase (EL) = Endothelial lipase (EL) (Homo sapiens (Human), UniProt Q9Y5X9); assay: EL assay: endothelial lipase activity with fluorescent substrate A10070 in DMPG vesicles; type: biochemical
# Procedure, shortened: (§1)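 Substrate A10070 sits in sonicated DMPG vesicles at 0.11 mole fraction. Lipase and compound preincubated 30 min, 37° C, in HEPES pH 8.0 buffer with CaCl2.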
# hepatic lipase (HL) = hepatic lipase (HL) (Homo sapiens (Human), UniProt P11150); assay: HL assay: hepatic lipase activity with fluorescent substrate A10070 in DMPG vesicles; type: biochemical
# Chain of hepatic lipase (HL) (P11150 23-499, species assumed): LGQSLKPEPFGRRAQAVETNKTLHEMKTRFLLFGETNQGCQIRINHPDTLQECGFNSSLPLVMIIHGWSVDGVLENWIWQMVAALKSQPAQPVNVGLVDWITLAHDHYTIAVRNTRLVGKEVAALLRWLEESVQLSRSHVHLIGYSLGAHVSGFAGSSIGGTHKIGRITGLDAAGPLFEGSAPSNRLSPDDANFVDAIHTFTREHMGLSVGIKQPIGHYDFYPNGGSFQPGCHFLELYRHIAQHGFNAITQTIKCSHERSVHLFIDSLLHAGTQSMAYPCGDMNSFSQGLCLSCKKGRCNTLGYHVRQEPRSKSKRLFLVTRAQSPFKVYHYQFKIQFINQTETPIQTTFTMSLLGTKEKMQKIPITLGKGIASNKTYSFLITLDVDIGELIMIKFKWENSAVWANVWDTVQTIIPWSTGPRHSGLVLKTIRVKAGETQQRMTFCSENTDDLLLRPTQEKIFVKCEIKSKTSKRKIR
# Procedure, shortened: as §1
# Chain of Endothelial lipase (EL) (Q9Y5X9 21-500): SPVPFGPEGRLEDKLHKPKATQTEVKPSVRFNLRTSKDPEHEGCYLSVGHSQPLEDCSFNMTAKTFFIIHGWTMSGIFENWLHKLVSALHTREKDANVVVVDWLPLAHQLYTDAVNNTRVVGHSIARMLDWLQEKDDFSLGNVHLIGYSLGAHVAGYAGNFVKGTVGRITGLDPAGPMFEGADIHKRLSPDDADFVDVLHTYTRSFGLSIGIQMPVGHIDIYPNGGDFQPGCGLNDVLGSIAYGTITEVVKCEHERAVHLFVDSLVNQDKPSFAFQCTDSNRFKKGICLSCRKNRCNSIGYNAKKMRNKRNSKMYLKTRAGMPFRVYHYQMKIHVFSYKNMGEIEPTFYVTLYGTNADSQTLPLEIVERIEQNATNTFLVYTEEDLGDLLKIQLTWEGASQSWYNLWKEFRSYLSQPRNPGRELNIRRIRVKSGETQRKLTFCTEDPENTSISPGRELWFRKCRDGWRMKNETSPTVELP
IC50 (Endothelial lipase (EL)),IC50 (hepatic lipase (HL)),SMILES
1.6 nM,201 nM,"Cc1cc2nc(C(C(=O)NCCS(N)(=O)=O)S(C)(=O)=O)sc2cc1-c1ccc(C(=O)O)cc1 (stereo not shown) [Example B326, 4-(2-{methanesulfonyl[(2-sulfamoylethyl)carba-moyl]methyl}-5-methyl-1,3-benzothiazol-6-yl)benzoic acid]"
4 nM,2620 nM,"CS(=O)(=O)C(C(=O)NCCS(N)(=O)=O)c1nc2ccc(-c3ccc(C(=O)N4CC[C@H](O)C4)cc3)cc2s1 (stereo partly drawn) [Example B328, 2-(6-{4-[(3S)-3-hydroxypyrrolidine-1-carbonyl]phen-yl}-1,3-benzothiazol-2-yl)-2-methanesulfonyl-N-(2-sulfamoylethyl)a-cetamide]"
1.8 nM,262 nM,"CS(=O)(=O)C(C(=O)NCCS(N)(=O)=O)c1nc2ccc(-c3ccc(C(=O)N4CC[C@@H](O)C4)cc3)cc2s1 (stereo partly drawn) [Example B329, 2-(6-{4-[(3R)-3-hydroxy-pyrrolidine-1-carbonyl]phen-yl}-1,3-benzothiazol-2-yl)-2-methanesulfonyl-N-(2-sulfamoylethyl)a-cetamide]"
0.7 nM,46.7 nM,"CS(=O)(=O)C(C(=O)NCCS(N)(=O)=O)c1nc2ccc(-c3ccc(C(=O)N4CC(F)C4)cc3)cc2s1 (stereo not shown) [Example B330, 2-{6-[4-(3-fluoroazetidine-1-carbonyl)phenyl]-1,3-benzothiazol-2-yl}-2-methanesulfonyl-N-(2-sulfamoylethyl)acetamide]"
72.5 nM,214 nM,"NC(=O)c1cccc(-c2ccc3nc(C(C(=O)NCCS(N)(=O)=O)S(=O)(=O)CCC(F)(F)F)sc3c2)c1 (stereo not shown) [Example B331, 3-(2-{[(2-sulfamoylethyl)car-bamoyl](3,3,3-trifluoro-propanesulfonyl)methyl}-1,3-benzothiazol-6-yl)benzamide]"
1.5 nM,136 nM,"NS(=O)(=O)CCNC(=O)C(c1nc2ccc(-c3cccc(C(=O)N4CCC(O)CC4)c3)cc2s1)S(=O)(=O)CCC(F)(F)F (stereo not shown) [Example B332, 2-{6-[3-(4-hydroxy-piperidine-1-carbonyl)phen-yl]-1,3-benzothiazol-2-yl}-N-(2-sulfamoyl-ethyl)-2-(3,3,3-trifluoro-propanesulfonyl)acetamide]"
9.8 nM,119 nM,"NS(=O)(=O)CCNC(=O)C(c1nc2ccc(-c3cccc(C(=O)N4CCOCC4)c3)cc2s1)S(=O)(=O)CCC(F)(F)F (stereo not shown) [Example B333, 2-{6-[3-(morpholine-4-carbonyl)phenyl]-1,3-benzothiazol-2-yl}-N-(2-sulfamoylethyl)-2-(3,3,3-trifluoropropanesulfon-yl)acetamide]"
14.2 nM,60.4 nM,"NS(=O)(=O)CCNC(=O)C(c1nc2ccc(-c3cccc(C(=O)N4CC(F)(F)C4)c3)cc2s1)S(=O)(=O)CCC(F)(F)F (stereo not shown) [Example B334, 2-{6-[3-(3,3-difluoro-azetidine-1-carbonyl)phen-yl]-1,3-benzothiazol-2-yl}-N-(2-sulfamoyl-ethyl)-2-(3,3,3-trifluoro-propanesulfonyl)acetamide]"
5.5 nM,14.7 nM,"NS(=O)(=O)CCNC(=O)C(c1nc2ccc(-c3cccc(C(=O)N4CCCC(F)(F)C4)c3)cc2s1)S(=O)(=O)CCC(F)(F)F (stereo not shown) [Example B335, 2-{6-[3-(3,3-difluoro-piperidine-1-carbonyl)phen-yl]-1,3-benzothiazol-2-yl}-N-(2-sulfamoyl-ethyl)-2-(3,3,3-trifluoro-propanesulfonyl)acetamide]"
8.2 nM,22.6 nM,"NS(=O)(=O)CCNC(=O)C(c1nc2ccc(-c3cccc(C(=O)N4CC(F)C4)c3)cc2s1)S(=O)(=O)CCC(F)(F)F (stereo not shown) [Example B336, 2-{6-[3-(3-fluoroazetidine-1-carbonyl)phenyl]-1,3-benzothiazol-2-yl}-N-(2-sulfamoylethyl)-2-(3,3,3-trifluoropropanesulfonyl)a-cetamide]"
6.8 nM,28.4 nM,"NS(=O)(=O)CCNC(=O)C(c1nc2ccc(-c3cccc(C(=O)NC4CCC4)c3)cc2s1)S(=O)(=O)CCC(F)(F)F (stereo not shown) [Example B337, N-cyclobutyl-3-(2-{[(2-sulfamoylethyl)carba-moyl](3,3,3-trifluoropropane-sulfonyl)methyl}-1,3-benzothiazol-6-yl)benzamide]"
26.9 nM,99.7 nM,"CN(CC(F)F)C(=O)c1cccc(-c2ccc3nc(C(C(=O)NCCS(N)(=O)=O)S(=O)(=O)CCC(F)(F)F)sc3c2)c1 (stereo not shown) [Example B338, N-(2,2-difluoroethyl)-N-methyl-3-(2-{[(2-sulfamoylethyl)carba-moyl](3,3,3-trifluoropro-panesulfonyl)methyl}-1,3-benzothiazol-6-yl)benzamide]"
9.7 nM,49.2 nM,"CC(F)(F)CNC(=O)c1cccc(-c2ccc3nc(C(C(=O)NCCS(N)(=O)=O)S(=O)(=O)CCC(F)(F)F)sc3c2)c1 (stereo not shown) [Example B339, N-(2,2-difluoropropyl)-3-(2-{[(2-sulfamoylethyl)car-bamoyl](3,3,3-trifluoropropanesulfon-yl)methyl}-1,3-benzothiazol-6-yl)benzamide]"
14.6 nM,79.5 nM,"CN(C)C(=O)c1cccc(-c2ccc3nc(C(C(=O)NCCS(N)(=O)=O)S(=O)(=O)CCC(F)(F)F)sc3c2)c1 (stereo not shown) [Example B340, N,N-dimethyl-3-(2-{[(2-sulfamoylethyl)carba-moyl](3,3,3-trifluoropro-panesulfonyl)methyl}-1,3-benzothiazol-6-yl)benzamide]"
6 nM,112 nM,"CC1(O)CCN(C(=O)c2cccc(-c3ccc4nc(C(C(=O)NCCS(N)(=O)=O)S(=O)(=O)CCC(F)(F)F)sc4c3)c2)CC1 (stereo not shown) [Example B341, 2-{6-[3-(4-hydroxy-4-methylpiperidine-1-carbonyl)phenyl]-1,3-benzothiazol-2-yl}-N-(2-sulfamoylethyl)-2-(3,3,3-trifluoropropanesulfon-yl)acetamide]"
9.5 nM,154 nM,"NS(=O)(=O)CCNC(=O)C(c1nc2ccc(-c3cccc(C(=O)N4CC[C@@H](O)C4)c3)cc2s1)S(=O)(=O)CCC(F)(F)F (stereo partly drawn) [Example B342, 2-(6-{3-[(3R)-3-hydroxy-pyrrolidine-1-carbon-yl]phenyl}-1,3-benzothiazol-2-yl)-N-(2-sulfamoyl-ethyl)-2-(3,3,3-trifluoro-propanesulfonyl)acetamide]"
13.5 nM,38.1 nM,"NS(=O)(=O)CCNC(=O)C(c1nc2ccc(-c3cccc(C(=O)N4CCC(F)(F)CC4)c3)cc2s1)S(=O)(=O)CCC(F)(F)F (stereo not shown) [Example B343, 2-{6-[3-(4,4-difluoro-piperidine-1-carbon-yl)phenyl]-1,3-benzothiazol-2-yl}-N-(2-sulfamoyl-ethyl)-2-(3,3,3-trifluoro-propanesulfonyl)acetamide]"
13.1 nM,22.2 nM,NS(=O)(=O)CCNC(=O)C(c1nc2ccc(-c3cccc(C(=O)N4CC[C@H](O)C4)c3)cc2s1)S(=O)(=O)CCC(F)(F)F (stereo partly shown) [Example B344]
1 nM,213 nM,"CC(C)(O)CNC(=O)c1cccc(-c2ccc3nc(C(C(=O)NCCS(N)(=O)=O)S(=O)(=O)CCC(F)(F)F)sc3c2)c1 (stereo not shown) [Example B345, N-(2-hydroxy-2-methyl-propyl)-3-(2-{[(2-sulfamoylethyl)carba-moyl](3,3,3-tnfluoropro-panesulfonyl)methyl}-1,3-benzothiazol-6-yl)benzamide]"
5.3 nM,400 nM,"Cc1cc2nc(C(C(=O)NCCS(N)(=O)=O)S(=O)(=O)Cc3ccccc3)sc2cc1-c1ccc(C(=O)N2CCOCC2)cc1 (stereo not shown) [Example B346, 2-{5-methyl-6-[4-(morpholine-4-carbon-yl)phenyl]-1,3-benzothiazol-2-yl}-2-phenylmethane-sulfonyl-N-(2-sulfamoylethyl)acetamide]"
3.4 nM,580 nM,"Cc1cc2nc(C(C(=O)NCCS(N)(=O)=O)S(=O)(=O)Cc3ccccc3)sc2cc1-c1ccc(C(=O)N2CC(C)(O)C2)cc1 (stereo not shown) [Example B347, 2-{6-[4-(3-hydroxy-3-methylazetidine-1-carbonyl)phenyl]-5-methyl-1,3-benzothiazol-2-yl}-2-phenylmethane-sulfonyl-N-(2-sulfamoylethyl)acetamide]"
1 nM,37.1 nM,"Cc1cc2nc(C(C(=O)NCCS(N)(=O)=O)S(=O)(=O)Cc3ccccc3)sc2cc1-c1ccc(C(=O)N2CCCCC2)cc1 (stereo not shown) [Example B348, 2-{5-methyl-6-[4-(piperidine-1-carbonyl)phen-yl]-1,3-benzothiazol-2-yl}-2-phenylmethane-sulfonyl-N-(2-sulfamoylethyl)acetamide]"
2.3 nM,347 nM,"Cc1cc2nc(C(C(=O)NCCS(N)(=O)=O)S(C)(=O)=O)sc2cc1-c1ccc(C(=O)N2CC(C)(O)C2)cc1 (stereo not shown) [Example B349, 2-{6-[4-(3-hydroxy-3-methylazetidine-1-carbonyl)phenyl]-5-methyl-1,3-benzothiazol-2-yl}-2-methanesulfonyl-N-(2-sulfamoylethyl)a-cetamide]"
3.2 nM,90.5 nM,"Cc1cc2nc(C(C(=O)NCCS(N)(=O)=O)S(C)(=O)=O)sc2cc1-c1ccc(C(=O)N2CCOCC2)cc1 (stereo not shown) [Example B350, 2-methanesulfonyl-2-{5-methyl-6-[4-(morpholine-4-carbonyl)phenyl]-1,3-benzothiazol-2-yl}-N-(2-sulfamoylethyl)acetamide]"
6.2 nM,14.9 nM,"NS(=O)(=O)CCNC(=O)C(c1nc2ccc(-c3ccc(C(=O)N4CCCCC4)cc3)cc2s1)S(=O)(=O)Cc1ccccc1 (stereo not shown) [Example B351, 2-phenylmethanesulfonyl-2-{6-[4-(piperidine-1-carbonyl)phenyl]-1,3-benzothiazol-2-yl}-N-(2-sulfamoylethyl)acetamide]"
0.8 nM,13.7 nM,"CS(=O)(=O)C(C(=O)NCCS(N)(=O)=O)c1nc2cc(-c3ccccc3F)ccc2s1 (stereo not shown) [Example B352, 2-[5-(2-fluorophenyl)-1,3-benzothiazol-2-yl]-2-methanesulfonyl-N-(2-sulfamoylethyl)acetamide]"
